What follows are compounds tested against T1, human TRPA1 (Homo sapiens, UniProt O75762, K186N/R3C/R58T) (assay: High Throughput Calcium Imaging Assay (FLIPR, cinnamaldehyde-activated Ca2+ influx)). Details: HEK293 FlpIn cells stably expressing human TRPA1; EC60 cinnamaldehyde; Fluo-4AM; read-out: TRPA1 hFLIPR IC50.
T1 construct: host or cells: HEK293 FlpIn
Format: cell-based
Source text: The assay was dependent on detecting the change in intracellular Ca2+ concentration following activation of the channel in cells stably expressing the TRPA1 channel. Activation of the TRPA1 channel was followed by Ca2+ influx. Ca2+ increase was quantified through the use of a fluorescent Ca2+ indicator that was loaded into the cells. Compounds which inhibited Ca2+ increase were considered “hits” warranting additional examination.
The HEK293 FlpIn cell line (Invitrogen) was stably transfected as per the manufacturers guidelines with a construct encoding a human TRPA1 protein with the amino acid sequence depicted in SEQ ID NO: 1. The resulting cell line was maintained in the growth medium recommended by the manufacturer and supplemented with 100 ug/mL Hygromycin B to promote the selection of cells stably expressing the TRPA1 channel. After growing to confluency, cells were plated at a density of 24,000 cells/well in 384 well Black/Clear Microtest plates (Falcon) in the recommended growth medium supplemented with hygromycin, and allowed to grow for 20-24 hours resulting in a ˜90% confluent monolayer of cells. Cells were then loaded with assay buffer containing the Ca2+ dye Fluo-4AM (Invitrogen) to a final concentration of 4 uM, and incubated for 60 minutes at room temperature in the dark. The assay buffer consisted of 138 mM NaCl, 5.33 mM KCl, 1.26 mM CaCl2, 0.49 mM MgCl2, 0.41 mM MgSO4 5.56 mM D-glucose, 0.44 mM KH2PO4, 0.34 mM Na2HPO4, 20 mM HEPES, 2.5 mM Probenecid, and 4% TR-40; pH 7.8. Following 1 hour dye loading, cells were assayed using the FLIPR TETRA (Molecular Devices) which permits excitation of the Fluo-4AM dye, and subsequent recording of emission spectra according to the manufacturer's guidelines. A total of 5 baseline readings were acquired prior to each reagent addition, after which, readings were acquired at a rate of 1 every 3 seconds for 195 seconds, and then 1 every 10 seconds for an additional 420 seconds. During the assay, reagents were added and mixed after each addition by the FLIPR TETRA pippetor. EC60 concentration of Cinnamaldehyde was determined before the screening assay, and used as the activating concentration henceforth. For the screening assay, the baseline reading was taken, followed by addition of 10 uL of a compound stock at six-times the final concentration, followed by 615 seconds of read time as previously described. Following baseline readings, 10 μl, of six-times final concentration Cinnamaldehyde was added to each well, achieving a final concentration of 10 uM compound, and on average, 12 uM Cinnamaldehyde (depending on the EC60 derived during that experiment). Following addition of Cinnamaldehyde, readings were taken for 615 seconds as previously described. Negative controls consisted of HEK293 FlpIn TRPA1 cells exposed to compound vehicle and then Cinnamaldehyde. […] “Hits” were identified as compounds which inhibited the fluorescence response in the presence of Cinnamaldehyde as compared to the negative and positive controls. IC50 values were determined for compounds defined as “hits” which reached fully inhibition. This cell-based fluorescence assay was used to determine Ca2+ influx through the channel in the presence of compound at the following concentrations: 10 uM, 3.33 uM, 1.11 uM, 0.37 uM, 0.12 uM, 0.041 uM, 0.014 uM, 0.0046 uM, 0.0015 uM, and 0.00051 uM.

T1 sequence (O75762 whole entry R3C/R58T/K186N): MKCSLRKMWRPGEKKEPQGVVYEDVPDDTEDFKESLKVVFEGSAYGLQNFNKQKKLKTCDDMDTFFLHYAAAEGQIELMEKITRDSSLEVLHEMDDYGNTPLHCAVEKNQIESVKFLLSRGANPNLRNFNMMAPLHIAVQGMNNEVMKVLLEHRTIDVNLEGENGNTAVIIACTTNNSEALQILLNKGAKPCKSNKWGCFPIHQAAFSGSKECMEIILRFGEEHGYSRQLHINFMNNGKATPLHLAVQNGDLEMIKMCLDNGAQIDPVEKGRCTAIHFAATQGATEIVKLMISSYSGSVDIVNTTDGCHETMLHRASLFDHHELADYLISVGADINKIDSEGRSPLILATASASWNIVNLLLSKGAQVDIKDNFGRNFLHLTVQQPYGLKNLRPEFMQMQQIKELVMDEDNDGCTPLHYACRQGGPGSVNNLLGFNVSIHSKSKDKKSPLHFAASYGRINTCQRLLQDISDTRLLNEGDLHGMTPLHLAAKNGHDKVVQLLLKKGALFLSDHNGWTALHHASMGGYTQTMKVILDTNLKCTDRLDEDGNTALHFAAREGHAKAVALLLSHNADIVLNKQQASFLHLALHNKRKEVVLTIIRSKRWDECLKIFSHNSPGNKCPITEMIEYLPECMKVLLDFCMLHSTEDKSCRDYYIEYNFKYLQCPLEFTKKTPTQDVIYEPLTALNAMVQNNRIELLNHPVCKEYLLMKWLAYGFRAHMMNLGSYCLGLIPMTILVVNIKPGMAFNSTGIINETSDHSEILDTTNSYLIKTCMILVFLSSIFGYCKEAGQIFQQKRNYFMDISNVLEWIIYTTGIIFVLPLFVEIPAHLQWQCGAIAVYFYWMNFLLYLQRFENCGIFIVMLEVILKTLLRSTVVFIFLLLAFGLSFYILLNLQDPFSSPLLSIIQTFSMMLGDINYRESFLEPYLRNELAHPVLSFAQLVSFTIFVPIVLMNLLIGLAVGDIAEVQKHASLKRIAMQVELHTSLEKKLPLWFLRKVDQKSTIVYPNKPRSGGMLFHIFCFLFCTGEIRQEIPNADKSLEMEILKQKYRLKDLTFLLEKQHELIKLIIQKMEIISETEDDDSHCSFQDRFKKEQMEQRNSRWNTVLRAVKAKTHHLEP

Row | SMILES | IC50 [nM]
1 | O[C@@]12CCCO[C@H]1CCC[C@@H]2Nc1ccc(F)cc1 (stereo in doubt) [(4aR,5S,8aS)-5-[(4-fluorophenyl)amino]hexahydro-2H-chromen-4a(5H)-ol] | 850
2 | O[C@]12CCCC[C@@H]1CCC[C@H]2Nc1ccccc1 [(4R,4aR,8aR)-4-(phenylamino)octahydronaphthalen-4a(2H)-ol] | 54
3 | O[C@]12CCCO[C@H]1CCC[C@H]2Nc1ccc(F)cc1 [(4aS,5R,8aS)-5-[(4-fluorophenyl)amino]hexahydro-2H-chromen-4a(5H)-ol] | 520

Stronger by IC50, values ahead:

Row | IC50 [nM] | SMILES
4 | 35 | COC[C@@H]1CCC(Nc2ccc(F)cc2)C2(O)CCCO[C@H]12 (stereo in doubt) [(4aR,5S)-5-[(4-fluorophenyl)amino]-8-(methoxymethyl)hexahydro-2H-chromen-4a(5H)-ol]
5 | 19 | O[C@]12CCCC[C@@H]1CCC[C@H]2Nc1ccc(F)cc1 [(4aR,8aR)-4-[(4-fluorophenyl)amino]octahydronaphthalen-4a(2H)-ol]

— patent US8829196B2, “TRPA1 antagonists” (Merck Sharp & Dohme Corp., priority 2009, dated 2014)
